Data as given in patent US11952431B2, “Neutrophil-binding peptides” (YISSUM RESEARCH DEVELOPMENT COMPANY OF THE HEBREW …, priority 2020, dated 2024).

Legend:
CD177 [1] = biological target: T1, CD177 (Homo sapiens, UniProt Q8N6Q3); assay: Correlation of CD177 expression and KFP-tetramer binding in donors; details: healthy donors, patients with COPD and lung cancer patients
T1 construct: endogenous in cells; host or cells: human neutrophils from healthy donors, COPD patients and lung cancer patients
T1 sequence (Q8N6Q3 22-408): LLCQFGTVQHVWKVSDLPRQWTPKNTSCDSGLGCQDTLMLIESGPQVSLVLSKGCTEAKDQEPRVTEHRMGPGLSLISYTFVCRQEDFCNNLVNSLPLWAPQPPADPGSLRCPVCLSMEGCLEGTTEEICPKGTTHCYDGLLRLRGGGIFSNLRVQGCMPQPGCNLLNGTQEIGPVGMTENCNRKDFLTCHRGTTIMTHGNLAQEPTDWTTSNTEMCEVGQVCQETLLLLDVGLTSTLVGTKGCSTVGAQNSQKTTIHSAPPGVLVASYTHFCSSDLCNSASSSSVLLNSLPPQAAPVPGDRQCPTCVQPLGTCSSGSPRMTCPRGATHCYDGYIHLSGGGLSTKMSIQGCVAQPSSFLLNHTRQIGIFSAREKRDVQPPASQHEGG
Text: FIGS. 22A-C: (22A) Bar graph of 16-KFP binding and CD177 expression of neutrophils of healthy donors (2, 6, 10), COPD patients (11, 12) and lung cancer patients (13). (22B) Line graph of correlation between CD177 expression and 16-KFP binding in different donors. (22C) Bare graph of binding of 16-KFP to neutrophils with increasing amounts of CD177 blocking antibody.
(§1) Similarly, the human CD177 was identified as a binding-partner of the peptides binding to human neutrophils (SEQ ID NOs: 1-8). […] Still, the extent of KFP-tetramer binding and CD177 levels fit well within the correlation plot and support the role of CD177 in mediating the binding of the KFP-tetramer to neutrophils (FIG. 22B).

neutrophils [2] = assay: Effect of KFP-tetramer / 16-KFP on neutrophil activation (ROS production); format: cell-based, human
Text: (§2) A biotinylated KFP-tetramer multiantigen (designated 16-KFP) was generated in the same manner as the 16-LQI. In whole blood, 16-KFP bound ˜80% of human neutorophils and less than 10% of non-neutrophil WBC (FIG. 15A).

neutrophils [3] = assay: Effect of KFP-tetramer / 16-KFP on neutrophil chemotaxis; format: cell-based, human
Text: as §2

human neutrophils = assay: 16-KFP binding in whole blood; details: healthy donor
Text: as §2

neutrophils [4] = assay: Effect of KFP-tetramer / 16-KFP on neutrophil viability (microscopy, flow cytometry); format: cell-based, human
[5] = test system: murine neutrophils (HDNs from 4T1-tumor bearing mice); assay: Titration of binding to purified HDNs, flow cytometry; design: species or system mouse; details: tetramer-SA complex of control peptide
Method: Analysis was performed by flow cytometry.

non-neutrophil WBC = assay: 16-KFP binding in whole blood; design: species or system human; details: healthy donor
Text: as §2

CD177 [6] = biological target: T1, CD177; assay: Pull-down with KFP-tetramer as bait, mass spectrometry; format: binding
Text: as §1

Row | Substance | correlation between CD177 expression and binding to neutrophils (CD177 [1]) | effect on neutrophil activation (ROS production, FIG. 15B) (neutrophils [2]) | chemoattraction of neutrophils (neutrophils [3]; FIG. 15E) | effect on neutrophil attraction to CXCL2 (neutrophils [3]; FIG. 15F) | human neutrophils bound (human neutrophils) | effect on neutrophil viability (neutrophils [4]) | binding to murine neutrophils [5] | non-neutrophil WBC bound (non-neutrophil WBC) | binding partner identified (CD177 [6]) | effect on chemotactic properties (neutrophils [3])
1 | (KFPDLDSRRLPHMSL (SEQ ID NO: 1) Doa-Doa-C)4-(Mpa)-4-Lys2-Lys-beta-Ala-Lys(Biotin)-beta-Ala-OH [KFP tetramer] | strong positive correlation | no effect | not chemoattractive | no effect | – | – | – | – | – | –
2 | 16-KFP: biotinylated KFP-tetramer multiantigen generated in the same manner as 16-LQI; tetramer-SA complex used as control on murine neutrophils [Peptide 16-KFP] | – | no significant effect | – | – | ~80% | no significant effect | did not show binding | less than 10% | CD177 was identified as the binding partner | no significant effect
